Reference: patent US20240246966A1, “NEW PYRAZOLO[1,5-a] PYRIMIDINE DERIVATIVES AS SIGMA LIGANDS” (ACONDICIONAMIENTO TARRASENSE, priority 2021, published 2024)

Assays:
Human σ1 Receptor = target: T1, Human σ1 Receptor (Homo sapiens, UniProt Q99720); assay: Human σ1 receptor radioligand assay ([3H](+)-pentazocine, transfected HEK-293 membranes); conditions: human σ1, [3H](+)-pentazocine 5 nM, binding expressed as Ki, read-out: Binding σ-1
T1 construct: expressed in transfected cells; host or cells: HEK-293
Protocol: Human σ1 Receptor Radioligand Assay
Transfected HEK-293 membranes (7 μg) were incubated with 5 nM of [^3H](+)-pentazocine in assay buffer containing Tris-HCl 50 mM at pH 8. NBS (non-specific binding) was measured by adding 10 μM haloperidol. The binding of the test compound was measured at either one concentration (% inhibition at 1 or 10 μM) or five different concentrations to determine affinity values (Ki). Plates were incubated at 37° C. for 120 minutes. After the incubation period, the reaction mix was then transferred to MultiScreen HTS, FC plates (Millipore), filtered and plates were washed 3 times with ice-cold 10 mM Tris-HCL (pH 7.4). Filters were dried and counted at approximately 40% efficiency in a MicroBeta scintillation counter (Perkin-Elmer) using EcoScint liquid scintillation cocktail.

Human σ2/TMEM97 receptor = target: T2, Human σ2/TMEM97 receptor (Homo sapiens, UniProt Q5BJF2); assay: Binding assay to human σ2/TMEM97 receptor ([3H]-DTG, transfected HEK-293 membranes); conditions: human σ2/TMEM97, [3H]-DTG 10 nM, binding expressed as Ki, read-out: Binding σ-2
T2 construct: expressed in transfected cells; host or cells: HEK-293
Protocol: Binding Assay to Human ρ2/TMEM97 Receptor
Transfected HEK-293 membranes (15 μg) were incubated with 10 nM [^3H]-1,3-Di-o-tolylguanidine ( DTG) in assay buffer containing Tris-HCl 50 mM at pH 8.0. NSB (non-specific binding) was measured by adding 10 μM haloperidol. The binding of the test compound was measured at either one concentration (% inhibition at 1 or 10 μM) or five different concentrations to determine affinity values (Ki). Plates were incubated at 25° C. for 120 minutes. After the incubation period, the reaction mix was transferred to MultiScreen HTS, FC plates (Millipore), filtered and washed 3 times with ice-cold 10 mM Tris-HCL (pH 8.0). Filters were dried and counted at approximately 40% efficiency in a MicroBeta scintillation counter (Perkin-Elmer) using EcoScint liquid scintillation cocktail.

T2 sequence (Q5BJF2 whole entry): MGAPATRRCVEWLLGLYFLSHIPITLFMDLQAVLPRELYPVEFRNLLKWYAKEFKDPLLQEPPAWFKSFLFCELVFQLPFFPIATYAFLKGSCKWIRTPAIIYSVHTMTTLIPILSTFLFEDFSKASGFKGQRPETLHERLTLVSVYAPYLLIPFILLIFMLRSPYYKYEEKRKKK
T1 sequence (Q99720 whole entry): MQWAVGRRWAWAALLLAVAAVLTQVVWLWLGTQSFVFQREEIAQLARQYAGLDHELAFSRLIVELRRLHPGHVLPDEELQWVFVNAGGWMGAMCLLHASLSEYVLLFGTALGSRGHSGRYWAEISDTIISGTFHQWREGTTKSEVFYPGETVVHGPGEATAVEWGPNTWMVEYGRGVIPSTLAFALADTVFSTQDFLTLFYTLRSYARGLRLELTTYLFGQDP

SMILES | Ki (Human σ1 Receptor) [nM] | Ki (Human σ2/TMEM97 receptor) [nM]
FC(F)(F)c1ccc(-n2ccc3cc(CN4CCCOCC4)cnc32)cn1 [Example 52, 4-((1-(6-(Trifluoromethyl)pyridin-3-yl)-1H-pyrrolo[2,3-b]pyridin-5-yl)methyl)-1,4-oxazepane] | < 100 | 500 to 1000
FC(F)(F)c1cc(-c2cnn3cc(CN4CCOCC4)cnc23)ccn1 [Example 29, 4-((3-(2-(Trifluoromethyl)pyridin-4-yl)pyrazolo[1,5-a]pyrimidin-6-yl)methyl)morpholine] | > 1000 | > 1000
FC(F)(F)c1cc(-c2cnn3cc(CN4CC5(CCOCC5)C4)cnc23)ccn1 [Example 33, 2-((3-(2-(Trifluoromethyl)pyridin-4-yl)pyrazolo[1,5-a]pyrimidin-6-yl)methyl)-7-oxa-2-azaspiro[3.5]nonane] | < 100 | > 1000
Fc1cnccc1-c1cnn2cc(CN3CCCC3)cnc12 [Example 3, 3-(3-Fluoropyridin-4-yl)-6-(pyrrolidin-1-ylmethyl)pyrazolo[1,5-a]pyrimidine] | < 100 | > 1000
Cc1cc(-c2cnn3cc(CN4CC5(CCOCC5)C4)cnc23)ccn1 [Example 27, 2-((3-(2-Methylpyridin-4-yl)pyrazolo[1,5-a]pyrimidin-6-yl)methyl)-7-oxa-2-azaspiro[3.5]nonane] | < 100 | > 1000
Cc1nc2c(-c3ccnc(C(F)(F)F)c3)cnn2c(C)c1CN1CCC2(CC1)COC2 [Example 37, 7-((5,7-Dimethyl-3-(2-(trifluoromethyl)pyridin-4-yl)pyrazolo[1,5-a]pyrimidin-6-yl)methyl)-2-oxa-7-azaspiro[3.5]nonane] | < 100 | 500 to 1000
OCC1(CCl)CCN(Cc2cnc3c(-c4ccnc(C(F)(F)F)c4)cnn3c2)CC1 [Example 60, (4-(Chloromethyl)-1-((3-(2-(trifluoromethyl)pyridin-4-yl)pyrazolo[1,5-a]pyrimidin-6-yl)methyl)piperidin-4-yl)methanol] | < 100 | 100 to 500
FC(F)(F)c1cc(-c2cnn3cc(CN4CCN(C5COC5)CC4)cnc23)ccn1 [Example 35, 6-((4-(Oxetan-3-yl)piperazin-1-yl)methyl)-3-(2-(trifluoromethyl)pyridin-4-yl)pyrazolo[1,5-a]pyrimidine] | 500 to 1000 | > 1000
OC1CCN(Cc2cnc3c(-c4ccnc(C(F)(F)F)c4)cnn3c2)CC1 [Example 36, 1-((3-(2-(Trifluoromethyl)pyridin-4-yl)pyrazolo[1,5-a]pyrimidin-6-yl)methyl)piperidin-4-ol] | < 100 | > 1000
COCC1CCN(Cc2cnc3c(ccn3-c3ccc(C(F)(F)F)nc3)c2)CC1 [Example 41, 5-((4-(Methoxymethyl)piperidin-1-yl)methyl)-1-(6-(trifluoromethyl)pyridin-3-yl)-1H-pyrrolo[2,3-b]pyridine] | < 100 | 100 to 500
FC(F)(F)c1cc(-n2ccc3cc(CN4CCC5(CCOCC5)CC4)cnc32)ccn1 [Example 46, 9-((1-(2-(Trifluoromethyl)pyridin-4-yl)-1H-pyrrolo[2,3-b]pyridin-5-yl)methyl)-3-oxa-9-azaspiro[5.5]undecane] | < 100 | < 100
CCOCC1CCN(Cc2cnc3c(ccn3-c3ccnc(C(F)(F)F)c3)c2)CC1 [Example 40, 5-((4-(Ethoxymethyl)piperidin-1-yl)methyl)-1-(2-(trifluoromethyl)pyridin-4-yl)-1H-pyrrolo[2,3-b]pyridine] | < 100 | 100 to 500
FC(F)(F)c1ccc(-c2cnn3cc(CN4CC5(CCOCC5)C4)cnc23)cn1 [Example 22, 2-((3-(6-(Trifluoromethyl)pyridin-3-yl)pyrazolo[1,5-a]pyrimidin-6-yl)methyl)-7-oxa-2-azaspiro[3.5]nonane] | < 100 | > 1000
FC(F)(F)c1ncccc1-n1ccc2cc(CN3CCC4(CCOC4)CC3)cnc21 [Example 54, 8-((1-(2-(Trifluoromethyl)pyridin-3-yl)-1H-pyrrolo[2,3-b]pyridin-5-yl)methyl)-2-oxa-8-azaspiro[4.5]decane] | < 100 | 500 to 1000
COC1CCN(Cc2cnc3c(ccn3-c3ccnc(C(F)(F)F)c3)c2)CC1 [Example 49, 5-((4-Methoxypiperidin-1-yl)methyl)-1-(2-(trifluoromethyl)pyridin-4-yl)-1H-pyrrolo[2,3-b]pyridine] | < 100 | 500 to 1000
Cc1cc(-c2cnn3cc(CN4CCC5(CCOCC5)CC4)cnc23)ccn1 [Example 26, 9-((3-(2-Methylpyridin-4-yl)pyrazolo[1,5-a]pyrimidin-6-yl)methyl)-3-oxa-9-azaspiro[5.5]undecane] | 100 to 500 | > 1000
FC(F)(F)c1cnccc1-c1cnn2cc(CN3CCC4(CC3)COC4)cnc12 [Example 19, 7-((3-(3-(Trifluoromethyl)pyridin-4-yl)pyrazolo[1,5-a]pyrimidin-6-yl)methyl)-2-oxa-7-azaspiro[3.5]nonane] | < 100 | > 1000
FC(F)(F)c1cc(-c2cnn3cc(CN4CCC5(CC4)COC5)ccc23)ccn1 [Example 57, 7-((3-(2-(Trifluoromethyl)pyridin-4-yl)pyrazolo[1,5-a]pyridin-6-yl)methyl)-2-oxa-7-azaspiro[3.5]nonane] | < 100 | 100 to 500
Clc1cc(-c2cnn3cc(CN4CCC5(CC4)COC5)cnc23)ccn1 [Example 16, 7-((3-(2-Chloropyridin-4-yl)pyrazolo[1,5-a]pyrimidin-6-yl)methyl)-2-oxa-7-azaspiro[3.5]nonane] | < 100 | > 1000
COC1CCN(Cc2cnc3c(ccn3-c3ccc(C(F)(F)F)nc3)c2)CC1 [Example 51, 5-((4-Methoxypiperidin-1-yl)methyl)-1-(6-(trifluoromethyl)pyridin-3-yl)-1H-pyrrolo[2,3-b]pyridine] | < 100 | 500 to 1000
COC1CCN(Cc2cnc3c(-c4ccnc(C(F)(F)F)c4)cnn3c2)CC1 [Example 34, 6-((4-Methoxypiperidin-1-yl)methyl)-3-(2-(trifluoromethyl)pyridin-4-yl)pyrazolo[1,5-a]pyrimidine] | < 100 | > 1000
CCOCC1CCN(Cc2cnc3c(-c4ccnc(C(F)(F)F)c4)cnn3c2)CC1 [Example 30, 6-((4-(Ethoxymethyl)piperidin-1-yl)methyl)-3-(2-(trifluoromethyl)pyridin-4-yl)pyrazolo[1,5-a]pyrimidine] | < 100 | 500 to 1000
FC(F)(F)c1ccc(-n2ccc3cc(CN4CC5(CCOCC5)C4)cnc32)cn1 [Example 55, 2-((1-(6-(Trifluoromethyl)pyridin-3-yl)-1H-pyrrolo[2,3-b]pyridin-5-yl)methyl)-7-oxa-2-azaspiro[3.5]nonane] | < 100 | 100 to 500
FC(F)(F)c1ccncc1-c1cnn2cc(CN3CCC4(CC3)COC4)cnc12 [Example 17, 7-((3-(4-(Trifluoromethyl)pyridin-3-yl)pyrazolo[1,5-a]pyrimidin-6-yl)methyl)-2-oxa-7-azaspiro[3.5]nonane] | < 100 | > 1000
FC(F)(F)c1cc(-c2cnn3cc(CN4CCCOCC4)cnc23)ccn1 [Example 31, 4-((3-(2-(Trifluoromethyl)pyridin-4-yl)pyrazolo[1,5-a]pyrimidin-6-yl)methyl)-1,4-oxazepane] | < 100 | 100 to 500
c1ccc(-c2cnn3cc(CN4CCC5(CC4)COC5)cnc23)nc1 [Example 18, 7-((3-(Pyridin-2-yl)pyrazolo[1,5-a]pyrimidin-6-yl)methyl)-2-oxa-7-azaspiro[3.5]nonane] | 500 to 1000 | > 1000
FC(F)(F)c1ncccc1-n1ccc2cc(CN3CC4(CCOCC4)C3)cnc21 [Example 56, 2-((1-(2-(Trifluoromethyl)pyridin-3-yl)-1H-pyrrolo[2,3-b]pyridin-5-yl)methyl)-7-oxa-2-azaspiro[3.5]nonane] | < 100 | > 1000
FC(F)(F)c1ccc(-n2ccc3cc(CN4CCC5(CCOCC5)CC4)cnc32)cn1 [Example 48, 9-((1-(6-(Trifluoromethyl)pyridin-3-yl)-1H-pyrrolo[2,3-b]pyridin-5-yl)methyl)-3-oxa-9-azaspiro[5.5]undecane] | < 100 | 100 to 500
FC(F)(F)c1cc(-n2ncc3cc(CN4CCC5(CC4)COC5)cnc32)ccn1 [Example 58, 7-((1-(2-(Trifluoromethyl)pyridin-4-yl)-1H-pyrazolo[3,4-b]pyridin-5-yl)methyl)-2-oxa-7-azaspiro[3.5]nonane] | < 100 | 100 to 500
COc1ncccc1-c1cnn2cc(CN3CCCC3)cnc12 [Example 4, 3-(2-Methoxypyridin-3-yl)-6-(pyrrolidin-1-ylmethyl)pyrazolo[1,5-a]pyrimidine] | < 100 | > 1000
